From patent US11078245B2, “Colon and pancreas cancer peptidomimetics” (PRECISION BIOLOGICS, INC., priority 2010, dated 2021)
Entries after “also recorded” stand apart in the source; their conditions may differ. Ends that are not written are not given here.

What was measured:
NPC-1C antigen = test: 4-1-4C12-KLH competitive ELISA; format: binding
Experimental: (§1) An exemplary NPC-1 antigen peptidomimetic, 4-1-4C12 (SEQ ID NO: 5) was conjugated to KLH (Keyhole Limpit Hemocyannin) (“4-1-4-C12-KLH”). […] Further, 4-1-4C12-KLH blocks NPC-1 binding to NPC-1C antigen specifically in competitive ELISA. After confirming the function of 4-1-4C12-KLH, 4-1-4C12-KLH was injected into rabbits. The immunized serum after third injection was tested by binding ELISA to check the function of 4-1-4C12-KLH induced antibody. The plate was coated with 4-1-4C12 peptide or CFPAC1 sup, diluted serum was added to the washed and blocked the plate. Bound rabbit IgG was detected by donkey anti-rabbit IgG-HRP.

CFPAC1 sup = target: T1, CFPAC1 sup (Homo sapiens, UniProt P98088); test: Rabbit immunization, serum binding ELISA; format: in vivo, rabbits; conditions: rabbit serum after third injection
T1 construct: endogenous in cells; host or cells: CFPAC-1 (human pancreatic tumor cell line); cells or serum-free conditioned medium
Experimental: as §1

4-1-4C12 peptide = test: Rabbit immunization, serum binding ELISA; format: in vivo, rabbits; conditions: rabbit serum after third injection
Experimental: as §1

NEO-101 antibody = test: 4-1-4-C12-KLH binding ELISA

blocking of NPC-1 binding to NPC-1C antigen (NPC-1C antigen): blocks
binding to NEO-101 antibody (NEO-101 antibody): binds to NEO-101 antibody
Substance: 4-1-4-C12-KLH: 4-1-4C12 (SEQ ID NO: 5) conjugated to KLH (Keyhole Limpit Hemocyannin) (SLPDDWFRYINY; also: conjugated to KLH (keyhole limpet hemocyanin))
immunized serum binding to CFPAC1 supernatant (CFPAC1 sup): bind to CFPAC1 human pancreatic cell line supernatant; also recorded: dose dependent manner
immunized serum binding to 4-1-4C12 peptide (4-1-4C12 peptide): binds to 4-1-4C12; also recorded: dose dependent manner
